In patent US8198299B2, “Cycloalkylidene and heterocycloalkylidene inhibitor compounds” (Gilead Sciences, Inc., priority 2008, dated 2012) one finds IC50 data, which are given here for 29 molecules.

Sequence of HDAC 1 (Q13547 whole entry, species assumed): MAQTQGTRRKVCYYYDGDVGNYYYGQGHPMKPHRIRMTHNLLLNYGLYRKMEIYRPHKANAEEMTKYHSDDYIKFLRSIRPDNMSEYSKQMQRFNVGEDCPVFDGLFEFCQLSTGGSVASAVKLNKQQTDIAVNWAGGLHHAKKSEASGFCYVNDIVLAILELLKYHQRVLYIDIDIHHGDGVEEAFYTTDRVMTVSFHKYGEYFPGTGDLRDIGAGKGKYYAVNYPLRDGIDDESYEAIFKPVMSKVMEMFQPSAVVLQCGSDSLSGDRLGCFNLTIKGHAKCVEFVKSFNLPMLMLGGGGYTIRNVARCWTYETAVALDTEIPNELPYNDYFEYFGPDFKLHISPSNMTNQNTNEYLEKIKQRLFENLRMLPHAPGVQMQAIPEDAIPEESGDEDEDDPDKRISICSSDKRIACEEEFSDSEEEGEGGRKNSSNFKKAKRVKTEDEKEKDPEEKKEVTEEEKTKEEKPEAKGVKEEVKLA

The assay addresses HDAC 1 (Homo sapiens, UniProt Q13547). Description: HDAC 1 inhibition assay with about 3-hour enzyme/compound preincubation (fluorophore/quencher peptide substrate). Format: biochemical. Conditions: 3-hour preincubation of enzyme and compound at room temperature; read-out: HDAC 1 inhibitory activity (IC50 [μM]) (3-hour preincubation). The protocol: HDAC inhibitory activity of the compound of Example 1 was measured by two types of assays in which HDAC 1 and 6 were used as a target molecule. The first assay was carried out without preincubation after addition of the enzyme. The test compound was suspended in and titrated in DMSO. It was then spotted into a 384-well test plate. The enzyme, HDAC 1 or 6, was diluted in assay buffer containing 25 mM Tris-HCl (pH 8.0), 137 mM NaCl, 2.7 mM KCl, and 0.01% Tween-20 and added to the pre-spotted compound. The peptide substrate containing a fluorophore/quencher pair was diluted in the same assay buffer and added to the compound/enzyme mix initiating the reaction. The reaction incubated at room temperature for about 45 minutes. A concentrated developer solution was diluted in the assay buffer, and added to the reaction. The reaction was incubated at room temperature for about 15 minutes and relative fluorescence was read on an instrument reader.
The second assay is similar to the first assay described above, except that preincubation is carried out for about 3 hours after the enzyme is introduced. The test compound was suspended in, and titrated in DMSO. It was then spotted into a 384-well test plate. The enzyme, HDAC 1 or 6, was diluted in the same assay buffer as used in the previous assay and added to the pre-spotted compound. The enzyme/compound mix was incubated at room temperature for about 3 hours. The peptide substrate containing a fluorophore/quencher pair was diluted in the assay buffer and added to the compound/enzyme mix initiating the reaction. The reaction incubated at room temperature for 45 minutes. A concentrated developer solution was diluted in the assay buffer, and added to the reaction. The reaction was incubated at room temperature for about 15 minutes and relative fluorescence was read on an instrument reader.
On to `Nc1ccccc1NC(=O)c1ccc(C2(c3nc(-c4ccc(N5CCNCC5)nc4)cs3)CCOCC2)cc1` [Example 35, N-(2-aminophenyl)-4-(4-(4-(6-(piperazin-1-yl)pyridin-3-yl)thiazol-2-yl)tetrahydropyran-4-yl)benzamide], for which the IC50 worked out at 0.0033 µM.
Turning to `Nc1ccc(-c2ccc(F)cc2)cc1NC(=O)c1ccc(C2(c3nccs3)CCOCC2)cc1` [Example 36, N-(4-amino-4′-fluorobiphenyl-3-yl)-4-(4-(thiazol-2-yl)tetrahydropyran-4-yl)benzamide], the IC50 came to 0.0029 µM.
To `CCOc1csc(C2(c3ccc(C(=O)Nc4cc(-c5cccs5)ccc4N)cc3)CCOCC2)n1` [Example 37, N-(2-amino-5-(thiophen-2-yl)phenyl)-4-(4-(4-ethoxythiazol-2-yl)tetrahydropyran-4-yl)benzamide] belongs 0.00388 µM.
Take `Nc1ccc(-c2cccs2)cc1NC(=O)c1ccc(C2(c3nnn[nH]3)CCOCC2)cc1` [Example 38, 4-(4-(1H-tetrazol-5-yl)tetrahydropyran-4-yl)-N-(2-amino-5-(thiophen-2-yl)phenyl)benzamide]: the IC50 came to 0.00311 µM.
The same measure for `Nc1ccc(-c2ccc(F)cc2)cc1NC(=O)c1ccc(C2(c3nnn[nH]3)CCOCC2)cc1` [Example 39, 4-(4-(1H-tetrazol-5-yl)tetrahydropyran-4-yl)-N-(4-amino-4′-fluorobiphenyl-3-yl)benzamide]: 0.00333 µM; for `CCOc1csc(C2(c3ccc(C(=O)Nc4cc(-c5ccc(F)cc5)ccc4N)cc3)CCOCC2)n1` [Example 40, N-(4-amino-4′-fluorobiphenyl-3-yl)-4-(4-(4-ethoxythiazol-2-yl)tetrahydropyran-4-yl)benzamide]: 0.00639 µM.
In the case of `Nc1ccccc1NC(=O)c1ccc(C2(c3nc(-c4cnccn4)cs3)CCOCC2)cc1` [Example 41, N-(2-aminophenyl)-4-(4-(4-(pyrazin-2-yl)thiazol-2-yl)tetrahydropyran-4-yl)benzamide], the IC50 is 0.00702 µM.
As for `O=C(NO)c1ccc(C2(c3nc(-c4cccnc4)cs3)CCOCC2)cc1` [Example 42, N-hydroxy-4-(4-(4-(pyridin-3-yl)thiazol-2-yl)tetrahydropyran-4-yl)benzamide], the IC50 turned out to be 0.0351 µM.
Regarding `O=C(NO)c1ccc(C2(c3nccs3)CCOCC2)cc1` [Example 43, N-hydroxy-4-(4-(thiazol-2-yl)tetrahydropyran-4-yl)benzamide], the 50% inhibitory concentration (IC50) was found to be 0.363 µM.
To `CN1CCN(c2ccc(-c3csc(C4(c5ccc(C(=O)NO)cc5)CCOCC4)n3)cn2)CC1` [Example 44, N-hydroxy-4-(4-(4-(6-(4-methylpiperazin-1-yl)pyridin-3-yl)thiazol-2-yl)tetrahydropyran-4-yl)benzamide] belongs 0.0071 µM; to `Nc1ccc(-c2ccc(Cl)s2)cc1NC(=O)c1ccc(C2(c3nccs3)CCOCC2)cc1` [Example 45, N-(2-amino-5-(5-chlorothiophen-2-yl)phenyl)-4-(4-(thiazol-2-yl)tetrahydropyran-4-yl)benzamide], 0.00606 µM.
On to `Cc1ccc(-c2ccc(N)c(NC(=O)c3ccc(C4(c5nccs5)CCOCC4)cc3)c2)s1` [Example 46, N-(2-amino-5-(5-methylthiophen-2-yl)phenyl)-4-(4-(thiazol-2-yl)tetrahydropyran-4-yl)benzamide], for which the 50% inhibitory concentration (IC50) is 0.00749 µM.
To `CN1CCN(c2ccc(-c3csc(C4(c5ccc(C(=O)Nc6ccccc6N)cc5)CCOCC4)n3)cc2)CC1` [Example 47, N-(2-aminophenyl)-4-(4-(4-(4-(4-methylpiperazin-1-yl)phenyl)thiazol-2-yl)tetrahydropyran-4-yl)benzamide] belongs 0.00576 µM; to `Nc1ccc(-c2ccc(F)cc2)cc1NC(=O)c1ccc(C2(c3nccs3)CC2)cc1` [Example 48, N-(4-amino-4′-fluorobiphenyl-3-yl)-4-(1-(thiazol-2-yl)cyclopropyl)benzamide], 0.00294 µM; to `Nc1ccc(-c2cccs2)cc1NC(=O)c1ccc(C2(c3ccccn3)CCOCC2)cc1` [Example 49], 0.00247 µM.
The same measure for `Nc1ccc(-c2cccs2)cc1NC(=O)c1ccc(C2(c3nccs3)CC2)cc1` [Example 50, N-(2-amino-5-(thiophen-2-yl)phenyl)-4-(1-(thiazol-2-yl)cyclopropyl)benzamide]: 0.00262 µM.
On to `Nc1ccc(-c2cccs2)cc1NC(=O)c1ccc(C2(c3ncc(-c4cccnc4)s3)CCOCC2)cc1` [Example 51, N-(2-amino-5-(thiophen-2-yl)phenyl)-4-(4-(5-(pyridin-3-yl)thiazol-2-yl)tetrahydropyran-4-yl)benzamide], for which the IC50 was found to be 0.0039 µM.
For `Cc1ccc(-c2ccc(N)c(NC(=O)c3ccc(C4(c5nccs5)CC4)cc3)c2)s1` [Example 52, N-(2-amino-5-(5-methylthiophen-2-yl)phenyl)-4-(1-(thiazol-2-yl)cyclopropyl)benzamide], the concentration for half-maximal inhibition (IC50) worked out at 0.00792 µM.
The same measure for `O=C(NO)c1ccc(C2(c3nc(-c4cnccn4)cs3)CCOCC2)cc1` [Example 53, N-hydroxy-4-(4-(4-(pyrazin-2-yl)thiazol-2-yl)tetrahydropyran-4-yl)benzamide]: 0.0979 µM; for `Nc1ccc(-c2ccc(F)cc2)cc1NC(=O)c1ccc(C2(c3nc(-c4cnccn4)cs3)CCOCC2)cc1` [Example 54, N-(4-amino-4′-fluorobiphenyl-3-yl)-4-(4-(4-(pyrazin-2-yl)thiazol-2-yl)tetrahydropyran-4-yl)benzamide]: 0.00625 µM; for `Nc1ccccc1NC(=O)c1ccc(C2(c3nc(-c4cnccn4)cs3)CC2)cc1` [Example 55, N-(2-aminophenyl)-4-(1-(4-(pyrazin-2-yl)thiazol-2-yl)cyclopropyl)benzamide]: 0.0444 µM.
As to `CN1CCc2nc(C3(c4ccc(C(=O)Nc5cc(-c6ccc(F)cc6)ccc5N)cc4)CC3)sc2C1` [Example 56, N-(4-amino-4′-fluorobiphenyl-3-yl)-4-(1-(5-methyl-4,5,6,7-tetrahydrothiazolo[5,4-c]pyridine-2-yl)cyclopropyl)benzamide], the half-inhibitory concentration (IC50) was 0.00325 µM.
The same measure for `Nc1ccc(F)cc1NC(=O)c1ccc(C2(c3nc(-c4cnccn4)cs3)CCOCC2)cc1` [Example 57, N-(2-amino-5-fluorophenyl)-4-(4-(4-(pyrazin-2-yl)thiazol-2-yl)tetrahydropyran-4-yl)benzamide]: 0.00774 µM.
Take `Nc1ccc(-c2ccc(F)cc2)cc1NC(=O)c1ccc(C2(c3nc4c(s3)COCC4)CC2)cc1` [Example 58, N-(4-amino-4′-fluorobiphenyl-3-yl)-4-(1-(6,7-dihydropyrano[4,3-d]thiazol-2-yl)cyclopropyl)benzamide]: the concentration for half-maximal inhibition (IC50) amounted to 0.0208 µM.
Consider `Nc1ccc(-c2ccc(F)cc2)cc1NC(=O)c1ccc(C2(c3ccccn3)CCOCC2)cc1` [Example 59, N-(4-amino-4′-fluorobiphenyl-3-yl)-4-(4-(pyridin-2-yl)tetrahydropyran-4-yl)benzamide], for which the IC50 amounted to 0.00231 µM.
To `Nc1ccc(-c2ccc(Cl)s2)cc1NC(=O)c1ccc(C2(c3ccccn3)CCOCC2)cc1` [Example 60, N-(2-amino-5-(5-chlorothiophen-2-yl)phenyl)-4-(4-(pyridin-2-yl)tetrahydropyran-4-yl)benzamide] belongs 0.00616 µM; to `Cc1nc(C2(c3ccc(C(=O)Nc4cc(-c5ccc(F)cc5)ccc4N)cc3)CCOCC2)sc1C(C)O` (centres unmarked) [Example 61, N-(4-amino-4′-fluorobiphenyl-3-yl)-4-(4-(5-(1-hydroxyethyl)-4-methylthiazol-2-yl)tetrahydropyran-4-yl)benzamide], 0.00209 µM; to `Cc1nc(C2(c3ccc(C(=O)Nc4cc(-c5ccc(F)cc5)ccc4N)cc3)CCOCC2)sc1C` [Example 62, N-(4-amino-4′-fluorobiphenyl-3-yl)-4-(4-(4,5-dimethylthiazol-2-yl)tetrahydropyran-4-yl)benzamide], 0.00896 µM.
Consider `Cc1cnc(C2(c3ccc(C(=O)Nc4cc(-c5ccc(F)cc5)ccc4N)cc3)CCOCC2)s1` [Example 63, N-(4-amino-4′-fluorobiphenyl-3-yl)-4-(4-(5-methylthiazol-2-yl)tetrahydropyran-4-yl)benzamide], for which the half-inhibitory concentration (IC50) came out at 0.00428 µM.

One may read the IC50 as the point on the concentration scale where inhibition reaches its midpoint.
